Where two headings read alike, the source gives them in different places. Starred links: 1 amine or outer side, 2 acyl side, 3 side chain; linkers in the order of their positions; H or OH if unused. Positions of bridges follow the written chain, without caps; N, C: chain ends. Non-standard residues stand in square brackets, D forms with d. Residues, ends and D or L forms follow the SMILES beside them. Groups on a side chain read outwards from the residue. ξ: configuration not given here. *: point of attachment. ξAbu(βξ-NH2) = CC(N[*:3])C(N[*:1])C(=O)[*:2]; Pentadecanoyl = CCCCCCCCCCCCCCC(=O)*; ξAsp(βξ-Me) = CC(C(=O)O)C(N)C(=O)O; X1 = O=C(Cc1ccc(N[*:1])cc1)[*:2]; ξAbu(3ξ-NH2) = CC(N)C(N)C(=O)O; Lauroyl = CCCCCCCCCCCC(=O)*; Decanoyl = CCCCCCCCCC(=O)*; 4Abz = Nc1ccc(C(=O)O)cc1; Dab = NCC[C@H](N)C(=O)O; Pip = O=C(O)[CH]1CCCCN1; ξD = NC(CC(=O)O)C(=O)O; ξPip = O=C(O)C1CCCCN1; ξV = CC(C)C(N)C(=O)O; ξP = O=C(O)C1CCCN1; Sar = CNCC(=O)O
System: Staphylococcus aureus (MSSA)
Outline: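 Broth microdilution MIC per NCCLS M7-A6 with doubling serial dilutions, in cation-adjusted Mueller-Hinton broth supplemented with 0.625 mM calcium.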

[1] = S. aureus (MSSA), CAMHB supplemented with 0.625 mM calcium, 24 hours at about 37° C., a range = compound tested multiple times

Row | MIC (24 h) [µg/mL] | MIC [1] | SMILES
1 |  | 125/1-2 μg/mL | CCCCCCCCCCCCCC(=O)NC(CC(=O)O)C(=O)NC1C(=O)N2CCCCC2C(=O)NC(C(C)C(=O)O)C(=O)NC(CC(=O)O)C(=O)NCC(=O)NC(CC(=O)O)C(=O)NCC(=O)NC(C(C)NC(=O)CNC(=O)[C@@H](N)CCCCN)C(=O)NC(C(C)C)C(=O)N2CCCC2C(=O)NC1C (stereo partly drawn) [Compound 125, C14-Amphomycin-9-Gly-Lys]
2 |  | 127/4 μg/mL | CCCCCCCCCCCCCC(=O)NC(CC(=O)O)C(=O)NC1C(=O)N2CCCCC2C(=O)NC(C(C)C(=O)O)C(=O)NC(CC(=O)O)C(=O)NCC(=O)NC(CC(=O)O)C(=O)NCC(=O)NC(C(C)NC(=O)[C@@H](N)CCCN)C(=O)NC(C(C)C)C(=O)N2CCCC2C(=O)NC1C (stereo partly drawn) [Compound 127, C14-Amphomycin-9-Orn]
3 |  | 134/32 μg/mL | CCCCCCCCCCCCC(=O)NC(CC(=O)O)C(=O)NC1C(=O)N2CCCCC2C(=O)NC(C(C)C(=O)O)C(=O)NC(CC(=O)O)C(=O)NCC(=O)NC(CC(=O)O)C(=O)NCC(=O)NC(C(C)NC(=O)[C@@H](N)CCCN)C(=O)NC(C(C)C)C(=O)N2CCCC2C(=O)NC1C (stereo partly drawn) [Compound 134, C13-Amphomycin-9-Orn]
4 |  | 141/2 μg/mL | CCCCCCCCCCCCCCCC(=O)NC(CC(=O)O)C(=O)NC1C(=O)N2CCCCC2C(=O)NC(C(C)C(=O)O)C(=O)NC(CC(=O)O)C(=O)NCC(=O)NC(CC(=O)O)C(=O)NCC(=O)NC(C(C)NC(=O)CNC(=O)[C@@H](N)CCCCN)C(=O)NC(C(C)C)C(=O)N2CCCC2C(=O)NC1C (stereo partly drawn) [Compound 141, C16-Amphomycin-9-Gly-Lys]
5 |  | 143/2-4 μg/mL | CCCCCCCCCCCC(=O)NC(CC(=O)O)C(=O)NC1C(=O)N2CCCCC2C(=O)NC(C(C)C(=O)O)C(=O)NC(CC(=O)O)C(=O)NCC(=O)NC(CC(=O)O)C(=O)NCC(=O)NC(C(C)NC(=O)CNC(=O)[C@@H](N)CCCCN)C(=O)NC(C(C)C)C(=O)N2CCCC2C(=O)NC1C (stereo partly drawn) [Compound 143, C12-Amphomycin-9-Gly-Lys]
6 | 0.5 to 1 |  | CCCCCCCCCCCCCCC(=O)NC(CC(=O)O)C(=O)NC1C(=O)N2CCCCC2C(=O)NC(C(C)C(=O)O)C(=O)NC(CC(=O)O)C(=O)NCC(=O)NC(CC(=O)O)C(=O)NCC(=O)NC(C(C)NC(=O)CCNC(=O)[C@@H](N)CCCN)C(=O)NC(C(C)C)C(=O)N2CCCC2C(=O)NC1C (stereo partly drawn) [Compound 148, C15-Amphomycin-9-(β-Ala)-Orn]
7 | 2 |  | CCCCCCCCCCCCCCC(=O)NC(CC(=O)O)C(=O)NC1C(=O)N2CCCCC2C(=O)NC(C(C)C(=O)O)C(=O)NC(CC(=O)O)C(=O)NCC(=O)NC(CC(=O)O)C(=O)NCC(=O)NC(C(C)NC(=O)CNC(=O)[C@@H](N)CCCN)C(=O)NC(C(C)C)C(=O)N2CCCC2C(=O)NC1C (stereo partly drawn) [Compound 153, C15-Amphomycin-9-Gly-Orn]
8 | 4 |  | CCCCCCCCCCCCCCC(=O)NC(CC(=O)O)C(=O)NC1C(=O)N2CCCCC2C(=O)NC(C(C)C(=O)O)C(=O)NC(CC(=O)O)C(=O)NCC(=O)NC(CC(=O)O)C(=O)NCC(=O)NC(C(C)NC(=O)CNC(=O)[C@@H](N)CCN)C(=O)NC(C(C)C)C(=O)N2CCCC2C(=O)NC1C (stereo partly drawn) [Compound 154, C15-Amphomycin-9-Gly-gDab]
9 | 8 |  | CCCCCCCCCCCCCCC(=O)NC(CC(=O)O)C(=O)NC1C(=O)N2CCCCC2C(=O)NC(C(C)C(=O)O)C(=O)NC(CC(=O)O)C(=O)NCC(=O)NC(CC(=O)O)C(=O)NCC(=O)NC(C(C)NC(=O)CCNC(=O)[C@@H](N)CCCCN)C(=O)NC(C(C)C)C(=O)N2CCCC2C(=O)NC1C (stereo partly drawn) [Compound 155, C15-Amphomycin-9-(β-Ala)-Lys]
10 | 1 |  | CCCCCCCCCCCCCCC(=O)NC(CC(=O)O)C(=O)NC1C(=O)N2CCCCC2C(=O)NC(C(C)C(=O)O)C(=O)NC(CC(=O)O)C(=O)NCC(=O)NC(CC(=O)O)C(=O)NCC(=O)NC(C(C)NC(=O)CCCNC(=O)[C@@H](N)CCCCN)C(=O)NC(C(C)C)C(=O)N2CCCC2C(=O)NC1C (stereo partly drawn) [Compound 156, C15-Amphomycin-9-GABA-Lys]

Further lines, the compound ahead of its results:

Row | SMILES | MIC (24 h) [µg/mL] | MIC [1]
11 | CCCCCCCCCC(=O)Nc1ccc(CC(=O)NC(CC(=O)O)C(=O)NC2C(=O)N3CCCCC3C(=O)NC(C(C)C(=O)O)C(=O)NC(CC(=O)O)C(=O)NCC(=O)NC(CC(=O)O)C(=O)NCC(=O)NC(C(C)N)C(=O)NC(C(C)C)C(=O)N3CCCC3C(=O)NC2C)cc1 (stereo not drawn) [Compound 122, CH3—(CH2)9-(p-Apa)-Amphomycin] (Decanoyl-[X1]D[ξAbu(βξ-NH2)][Pip][ξAsp(βξ-Me)]DGDG[ξAbu(3ξ-NH2)]VP; lactam 3-C; configuration not given here; N-terminus assumed) | 8 | 
12 | CCCCCCCCCCCC(=O)Nc1ccc(C(=O)NCC(=O)NC(CC(=O)O)C(=O)NC2C(=O)N3CCCCC3C(=O)NC(C(C)C(=O)O)C(=O)NC(CC(=O)O)C(=O)NCC(=O)NC(CC(=O)O)C(=O)NCC(=O)NC(C(C)N)C(=O)NC(C(C)C)C(=O)N3CCCC3C(=O)NC2C)cc1 (stereo not drawn) [Compound 123, C12-PABA-Gly-Amphomycin] ({Lauroyl-4Abz}-GD[ξAbu(βξ-NH2)][Pip][ξAsp(βξ-Me)]DGDG[ξAbu(3ξ-NH2)]VP; lactam 3-C; configuration not given here) | 1 | 
13 | CCCCCCCCCCCCC(=O)NC(CC(=O)O)C(=O)NC1C(=O)N2CCCCC2C(=O)NC(C(C)C(=O)O)C(=O)NC(CC(=O)O)C(=O)NCC(=O)NC(CC(=O)O)C(=O)NCC(=O)NC(C(C)NC(=O)[C@@H](N)CN)C(=O)NC(C(C)C)C(=O)N2CCCC2C(=O)NC1C (stereo partly drawn) [Compound 136, C13-Amphomycin-9-Dap] |  | 136/4 μg/mL
14 | CCCCCCCCCCCCCC(=O)NC(CC(=O)O)C(=O)NC1C(=O)N2CCCCC2C(=O)NC(C(C)C(=O)O)C(=O)NC(CC(=O)O)C(=O)NCC(=O)NC(CC(=O)O)C(=O)NCC(=O)NC(C(C)NC(=O)[C@@H](N)CN)C(=O)NC(C(C)C)C(=O)N2CCCC2C(=O)NC1C (stereo partly drawn) [Compound 140, C14-Amphomycin-9-Dap] |  | 140/32 μg/mL
15 | CCCCCCCCCCCCCCC(=O)NC(CC(=O)O)C(=O)NC1C(=O)N2CCCCC2C(=O)NC(C(C)C(=O)O)C(=O)NC(CC(=O)O)C(=O)NCC(=O)NC(CC(=O)O)C(=O)NCC(=O)NC(C(C)NC(=O)CN(C)C(=O)[C@@H](N)CCCN)C(=O)NC(C(C)C)C(=O)N2CCCC2C(=O)NC1C (stereo partly drawn) [Compound 144, C15-Amphomycin-9-Sar-Orn] | 4 | 
16 | CCCCCCCCCCCCCCC(=O)NC(CC(=O)O)C(=O)NC1C(=O)N2CCCCC2C(=O)NC(C(C)C(=O)O)C(=O)NC(CC(=O)O)C(=O)NCC(=O)NC(CC(=O)O)C(=O)NCC(=O)NC(C(C)NC(=O)CN(C)C(=O)[C@@H](N)CCN)C(=O)NC(C(C)C)C(=O)N2CCCC2C(=O)NC1C (stereo partly drawn) [Compound 145, C15-Amphomycin-9-Sar-gDab] (Pentadecanoyl-[ξD][ξAbu(βξ-NH2)][ξPip][ξAsp(βξ-Me)][ξD]G[ξD]G[ξAbu(βξ-NH2)]([Sar-Dab])[ξV][ξP]; lactam 2-C) | 2 | 
17 | CCCCCCCCCCCCCCC(=O)NC(CC(=O)O)C(=O)NC1C(=O)N2CCCCC2C(=O)NC(C(C)C(=O)O)C(=O)NC(CC(=O)O)C(=O)NCC(=O)NC(CC(=O)O)C(=O)NCC(=O)NC(C(C)NC(=O)CN(C)C(=O)[C@@H](N)CN)C(=O)NC(C(C)C)C(=O)N2CCCC2C(=O)NC1C (stereo partly drawn) [Compound 146, C15-Amphomycin-9-Sar-Dap] | 2 | 
18 | CCCCCCCCCCCCCCC(=O)NC(CC(=O)O)C(=O)NC1C(=O)N2CCCCC2C(=O)NC(C(C)C(=O)O)C(=O)NC(CC(=O)O)C(=O)NCC(=O)NC(CC(=O)O)C(=O)NCC(=O)NC(C(C)NC(=O)[C@H]2CCCN2C(=O)[C@H](N)CCCCN)C(=O)NC(C(C)C)C(=O)N2CCCC2C(=O)NC1C (stereo partly drawn) [Compound 151, C15-Amphomycin-9-(D-Pro)-(D-Lys)] | 16 | 

Reference: patent US7868135B2, “Compositions of lipopeptide antibiotic derivatives and methods of use thereof” (priority 2003, dated 2011)
